Reference: US20070218456A1, “CELLULAR ASSAYS FOR SIGNALING RECEPTORS” (INVITROGEN CORPORATION, priority 2006, published 2007)
≈ marks a conversion by molar mass, not a printed value.

Test system: T-REx™-G2A-NFAT-bla Freestyle™293F cells
Assay: T-REx G2A NFAT-bla Freestyle 293F beta-lactamase reporter assay (inducer dose response)
Conditions: for EC50: Homo sapiens, FreeStyle 293-F
Protocol: In order to control the levels of G2A expression, G2A was placed under the control of an inducible promoter using Invitrogen's T-REx™ system. To again assess feasibility, pcDNA 5 G2A/TO was transiently transfected into CRE-bla Freestyle™ and NFAT-bla Freestyle™ cell lines stably expressing the T-REx™ Tet repressor plasmid (pcDNA6/TR; e.g., catalog# V1025-20, Invitrogen, Carlsbad, Calif.). The transfected cells were then treated with 10 ug/mL, 1 ug/mL, or 100 ng/mL tetracycline for 24 h to induce G2A expression. […] Stable pools of cells were created in both the TR CRE-bla and TR NFAT-bla Freestyle™293F backgrounds.
Stimulation Kinetics—Selected pools of both CRE-bla and NFAT-bla T-REx™ G2A Freestyle™ cells were stimulated with tetracycline for 3, 4, 5, or 24 h and loaded for 2 h with 1 μM LiveBLAzer™-FRET B/G substrate.
To improve the balance between tetracycline-induced signaling and cell death by testing shorter induction times, lower tetracycline concentrations and altered culture conditions were utilized to promote cell health. A 16 h tetracycline stimulation time was attempted on the pools from the first sort. Cells were plated at 10,000 cells/well 24 hours prior to assay in DMEM+10% dFBS and incubated at 37° C./5% CO2 until time of assay. The cells were stimulated for 16 hours (e.g., overnight) with a dilution series of the tetracycline. Following stimulation, the cells were loaded for 2 hours at room temperature in the dark with LiveBLAzer™-FRET B/G loading solution containing 1 μM substrate. This assay was done in Poly-D-Lysine coated plates.
Since G2A has no known agonists, doxycycline and tetracycline were compared as inducers of the assay. An antibiotic selected pool of cells were plated at 10,000 cells/well 24 hours prior to assay in DMEM+10% dFBS and incubated at 37° C./5% CO2 until time of assay. The cells were stimulated with a dilution series of each compound for 16 hours at 37° C./5% CO2 and loaded for 2 hours at room temperature in the dark with LiveBLAzer™-FRET B/G loading solution containing 1 μM substrate.
Cell Density/well—The influence of cell-plating density on assay performance was tested to find the density giving the best response and Z′ while maintaining the expected pharmacology. Cells were plated 24 hours prior to the assay at the densities indicated in FIG. 14 in DMEM+10% dFBS and incubated at 37° C./5% CO2 until the time of assay. The cells were stimulated for 16 hours at 37° C./5% CO2 with a dilution series of the doxycycline. After incubation, the cells were loaded for 2 hours at room temperature in the dark with LiveBLAzer™-FRET B/G loading solution containing 1 μM substrate.
DMSO Tolerance—Tests were performed related to assay performance as a function of DMSO concentration to determine the robustness of the assay to the range of DMSO challenge routinely encountered during high-throughput screening. Dose response curves were performed in the presence of 0%, 0.25%, 0.5%, or 1% DMSO. Cells were plated at 10,000 cells/well 24 hours prior to assay in DMEM+10% dFBS and incubated at 37° C./5% CO2 until time of assay. After incubation, DMSO was added to the wells to final concentrations of 0%, 0.25%, 0.5% and 1% DMSO. The cells were stimulated for 16 hours with a dilution series of the doxycycline. Following stimulation, the cells were loaded for 2 hours at room temperature in the dark with LiveBLAzer™-FRET B/G loading solution containing 1 μM substrate.
The substrate loading times were varied to find the time for an optimal assay performance. Cells were plated at 10,000 cells/well 24 hours prior to assay in DMEM+10% dFBS and incubated at 37° C./5% CO2 until time of assay. After incubation, DMSO was added to the wells to final concentration of 0.5%.

[1] = 60 min substrate loading, 10,000 cells/well, 0.5% DMSO, 16 h
[2] = 90 min substrate loading, 10,000 cells/well, 0.5% DMSO, 16 h
[3] = 120 min substrate loading, 10,000 cells/well, 0.5% DMSO, 16 h
[4] = representative data, 16 h, 0.5% DMSO, 2 h loading

`C[C@H]1c2cccc(O)c2C(=O)C2=C(O)[C@]3(O)C(=O)C(C(N)=O)=C(O)[C@@H](N(C)C)[C@@H]3[C@@H](O)[C@@H]21` [Doxycycline] was tested, and the “RR (Max)” value (0.0% DMSO, 10,000 cells/well, 16 h) was 6.9, the “RR (Max)” value (0.25% DMSO, 10,000 cells/well, 16 h) was 7.2 and the “RR (Max)” value (0.50% DMSO, 10,000 cells/well, 16 h) was 6.5. The “RR (Max)” value (1.00% DMSO, 10,000 cells/well, 16 h) was 5.4, the “RR (Max)” value (1,250 cells/well, clone #20, 16 h, 0.5% DMSO) was 3.51 and the “RR (Max)” value (2,500 cells/well, clone #20, 16 h, 0.5% DMSO) was 4.8. For the same compound, the “RR (Max)” value [1] was 4.5, the “RR (Max)” value (5,000 cells/well, clone #20, 16 h, 0.5% DMSO) was 5.93 and the “RR (Max)” value [2] was 6.5. For the same compound, the “RR (Max)” value [3] was 6.5, the “RR (Max)” value (10,000 cells/well, clone #20, 16 h, 0.5% DMSO) was 7.7 and the “RR (Max)” value (Average of DR 1-3) was 5.77. The “RR (Max)” value (DR 1 (reproducibility, separate day)) was 5.36, the “RR (Max)” value (DR 2 (reproducibility, separate day)) was 5.95 and the “RR (Max)” value (DR 3 (reproducibility, separate day)) was 5.99. For the same compound, the “RR (Max)” value (Fresh cells taken from culture) was 5.99, the “RR (Max)” value (Frozen cells thawed immediately before use) was 2.48 and the EC50 [1] was 0.162 ng/mL (≈ 0.364 nM). For the same compound, the EC50 [2] was 0.151 ng/mL (≈ 0.34 nM), the EC50 [3] was 0.172 ng/mL (≈ 0.388 nM) and the EC50 (16 h, 0.0% DMSO, 10,000 cells/well) was 0.159 ng/mL (≈ 0.358 nM). It also gave an EC50 (16 h, 0.25% DMSO, 10,000 cells/well) of 0.197 ng/mL (≈ 0.444 nM), an EC50 (16 h, 0.50% DMSO, 10,000 cells/well) of 0.172 ng/mL (≈ 0.388 nM) and an EC50 (16 h, 1.00% DMSO, 10,000 cells/well) of 0.187 ng/mL (≈ 0.422 nM). For the same compound, the EC50 (16 h, 1,250 cells/well, clone #20, 16 h, 0.5% DMSO) was 0.305 ng/mL (≈ 0.687 nM), the EC50 (16 h, 2,500 cells/well, clone #20, 16 h, 0.5% DMSO) was 0.216 ng/mL (≈ 0.485 nM) and the EC50 (16 h, 5,000 cells/well, clone #20, 16 h, 0.5% DMSO) was 0.199 ng/mL (≈ 0.447 nM). For the same compound, the EC50 (16 h, 10,000 cells/well, clone #20, 16 h, 0.5% DMSO) was 0.291 ng/mL (≈ 0.655 nM), the EC50 (16 h, DR 1 (reproducibility, separate day), 10,000 cells/well, 0.5% DMSO) was 0.246 ng/mL (≈ 0.553 nM) and the EC50 (16 h, DR 2 (reproducibility, separate day), 10,000 cells/well, 0.5% DMSO) was 0.0963 ng/mL (≈ 0.217 nM). For the same compound, the EC50 (16 h, DR 3 (reproducibility, separate day), 10,000 cells/well, 0.5% DMSO) was 0.0533 ng/mL (≈ 0.12 nM), the EC50 (16 h, Fresh cells taken from culture, 10,000 cells/well) was 0.0533 ng/mL (≈ 0.12 nM) and the EC50 (16 h, Frozen cells thawed immediately before use, 10,000 cells/well, 16 h) was over 0.985 ng/mL. The EC50 (Average of DR 1-3) was 0.132 ng/mL (≈ 0.297 nM), the EC50 (antibiotic selected pool, 10,000 cells/well, 16 h stimulation, 2 h loading) was 1.6 ng/mL (≈ 3.6 nM) and the EC50 [4] was 0.05 ng/mL (≈ 0.113 nM). For the same compound, the “RR (Max)” value (antibiotic selected pool, 10,000 cells/well, 16 h stimulation) was 3.3, the “times more potent than tetracycline” value (antibiotic selected pool, 16 h) was about 30 times and the EC100 [4] was 2.2 ng/mL.
